Test results taken from patent US6958359B1, “Vanadium compounds as anti-angiogenic agents” (Parker Hughes Institute, priority 2000, dated 2005).

Key:
[1] = tested on: CAMs of growing chick embryos; assay: Chick embryo chorioallantoic membrane (CAM) assay, inhibition of angiogenesis; assay type: in vivo, chick (white Leghorn chicken); conditions: for Avascular Zone: assessed 48 hours after implantation
Procedure: Inhibition of embryonic angiogenesis was determined using a bioassay system involving CAMs of growing chick embryos, as previously described (Nguyen et al, Microvascular Research, 47:31, 1994; Auerbach et al, Developmental Biology, 41:391, 1974). Fertilized white Leghorn chicken eggs were received at day 3 of incubation from the University of Minnesota Poultry Research Center, St. Paul, Minn. The following procedures took place in a sterile laminar flow hood. The eggs were wiped down with 70% isoprpyl alcohol and allowed to air dry. The eggs were wiped with Betadine and placed in a horizontal position for approximately 5 minutes and allowed to dry. The eggs were cracked and placed into sterile 100×20 mm^2 Petri dishes (Fischer, Itasca, Ill.) and transferred to a 37° C. humidified incubator (1.5% CO2). […] Louis, Mo.) were prepared by pipetting 10 μl of the compound, using a positive displacement pipette, onto sterile Teflon™ PFA Petri dishes (VWR, Chicago, Ill.) and drying in a vacuum desiccator at ambient temperature. […] The eggs were returned to a humidified 1.5% CO2/37° C. incubator.
Inhibition of angiogenesis was assessed 48 hours after implantation by measuring the avascular one in the CAM beneath the pellet, followed by photographic documentation of the CAM. Pellets containing 200 μg suramin (Calbiochem, La Jolla, Calif.) served as a positive control. The methylcellulose disk alone with no added compounds served as a negative control. Significant inhibition of angiogenesis was defined as the presence of an avascular zone of at least 3 mm in diameter around the methylcellulose disk.

Zebra fish embryos = assay: Zebrafish embryo model system, incubation of dechorionated two-cell stage embryos with drug; assay type: in vivo, Danio rerio
Procedure: ZF eggs were removed from their chorions by mild digestion in 1% Trypsin-EDTA (Sigma, St.Louis, Mo.) for 10 minutes at 28.5° C. (Standard temperature—ST), washed three times in “egg water” and twice in “embryonic medium” (EM), according to recommendations (Westerfield, The Zebrafish Book, Supra). The dechorionated two-cell stage cleaving eggs were transferred to the 24-well plastic cell culture plates (Costar, Cambridge, Mass.) filled with EM. Dechorionated embryos (10-12 per well) were exposed to the drugs at a constant ST for 0.5-24 hours. The final volume of the media in each well was 500 μL. The compound was tested at concentrations ranging from 10 μM to 4 mM. First dissolved in DMSO, it was then diluted serially with the incubation medium. The final concentration of DMSO in the wells was 1.2%. […]
(§1) Observations of cell division and development of the ZF embryos were carried out using a SMZ-10A stereo microscope (Nicon, Melville, N.Y.), once every 30 minutes within the first 3 hours of incubation and at 6, 12 and 24 hours, as well. […] The absorbance of each well was measured in a microplate reader (Labsystems) at 540 nm and a reference wavelength of 690 nm. The percent survival and the IC50 values were calculated using Graphpad Prism software version 2.0 (Graphpad Software, Inc., San Diego, Calif.), as described previously. […]

two-cell stage ZF eggs = assay: Zebrafish embryo microinjection into cytoplasm of two-cell stage eggs; assay type: in vivo, Danio rerio
Procedure: Microinjections were performed with the help of a SMZ-10A stereo microscope (Nicon, Melville, N.Y.) and transjector 5246 (Eppendorf Scientific Inc, Westbury, N.Y. 11590) at RT. The eggs in chorions were restrained in agar grooves filled with EM, and the drug containing solution was introduced into the cytoplasm of one of the blastomeres of the two-cell stage eggs through a micropipette with a splinted sharp tip of 2-3 μm in diameter. All microinjections were performed under visual control. Drugs for injection were dissolved in Hank's Balanced Salt Saline (Gibco, Rockville, Md.) with 10% DMSO. The volume of the solution injected into each blastomere was approximately […]. For every drug, 40-50 embryos were injected in 30 minutes of one series of experiment. After the treatment the embryos were transferred back to ST and studied as above.
as §1

[2] = tested on: breast cancer cell line BT-20; assay: MTT cytotoxicity assay; assay type: cell-based, human; conditions: BT-20, MTT, 48 hours; read-out: IC50 inhibition of proliferation
Procedure: (§2) Observations of cell division and development of the ZF embryos were carried out using a SMZ-10A stereo microscope (Nicon, Melville, N.Y.), once every 30 minutes within the first 3 hours of incubation and at 6, 12 and 24 hours, as well. […] The stereo microscope was fitted with a specially designed transparent heating tray in order to keep embryos at ST during observations. Pictures of the embryos were taken with a H-III Photomicrographic System (Nicon, Melville, N.Y.) using Ektachrome 64X film (Kodak, Rochester, N.Y.). Cytotoxicity MTF Assays The cytotoxicity of [VCp2(acac)](CF3SO3) against human cancer cell lines was performed as described previously (Ghosh et al, Clinc Canc Res, 6:1536, 2000) using the MTT (3-[4,5-dimethylthiazol-2-yl]-2,5-diphenyl tetrazolium bromide) assay (Boehringer Mannheim Corp., Indianapolis, Ind.). Briefly, exponentially growing tumor cells were seeded into a 96-well plate at a density of 2.5×10^4 cells/well and incubated [VCp2(acac)](CF3SO3) or 0.1% DMSO in PBS concentrations ranging from 0.1 to 250 μM. Following incubation with drug for 48 hours at 37° C., to each well, 10 μl of MTT (0.5 mg/ml final concentration) was added and the plates were incubated at 37° C. for 4 hours to allow MTT to form formazan crystals by reacting with metabolically active cells. The formazan crystals were solubilized overnight at 37° C. in a solution containing 10% SDS in 0.01 M HCl. The absorbance of each well was measured in a microplate reader (Labsystems) at 540 nm and a reference wavelength of 690 nm. The percent survival and the IC50 values were calculated using Graphpad Prism software version 2.0 (Graphpad Software, Inc., San Diego, Calif.), as described previously. Ghosh et al, Clinc Canc Res, 6:1536, 2000.

[3] = tested on: breast cancer cell line MDA-MB-231; assay: MTT cytotoxicity assay; assay type: cell-based, human; conditions: MDA-MB-231, MTT, 48 hours; read-out: IC50 inhibition of proliferation
Procedure: as §2

[4] = tested on: glioblastoma cell line U373; assay: MTT cytotoxicity assay; assay type: cell-based, human; conditions: 48 hours, read-out: IC50 inhibition of proliferation
Procedure: as §2

[5] = tested on: BT-20 breast cancer cells; assay: Immunocytochemistry and confocal microscopic analysis of mitotic spindles; assay type: cell-based, human; conditions: BT-20 cells, α-tubulin and DNA staining, confocal laser scanning microscopy
Procedure: At the appropriate time points coverslips containing BT-20 cells were fixed in−20° C. methanol for 15 minutes followed by 15 minutes incubation in phosphate buffered saline +0.1% Triton X-100 (PBS-Tx). Coverslips were next incubated with a primary antibody recognizing α-tubulin (Sigma, St.Louis Mo.) for 40 minutes in a humidified chamber at 37° C. Coverslips were washed for 15 minutes in PBS-Tx followed by a 40 minutes incubation with a fluorescently labeled secondary antibody (Jackson Immunoresearch, West Grove, Pa.). The coverslips were again rinsed in PBS-Tx and incubated with 5 μM Toto-3 (Molecular Probes, Eugene Oreg.) for 20 minutes to label the DNA. Coverslips were immediately inverted onto slides in Vectashield (Vector Labs, Burlingame, […].) to prevent photobleaching, sealed with nail polish and stored at 4° C.
Slides were examined using a Bio-Rad MRC-1024 Laser Scanning Confocal Microscope mounted on a Nikon Eclipse E800 upright microscope with high numerical aperture objectives. Slides were examined to determine the percentage of cells in interphase vs. mitosis and representative images were taken. Digital data was processed using Lasersharp (Bio-Rad, Hercules, Calif.) and Photoshop (Adobe Systems, Mountain View, Calif.) software and printed on a Pictrography printer (Fuji Photo Elmsford, N.Y.)

With `CC(=O)C=C(C)[O-].O=S(=O)([O-])C(F)(F)F.[V+4].c1cc[cH-]c1.c1cc[cH-]c1` [VDacac, Vanadocene acetylacetonato monotriflate] the “Avascular Zone” value ([1]; VDacac 1 (mg) pellet on CAM) was 7.0 ± 1.5 mm^2, the “Avascular Zone” value ([1]; VDacac 10 (mg) pellet on CAM) was 38.4 ± 16.6 mm^2 and the “Avascular Zone” value ([1]; VDacac 100 (mg) pellet on CAM) was 92.4 ± 24.9 mm^2. The “effect on angiogenesis in CAM” value ([1]; methylcellulose disks, doses ranging from 1 μg to 100 μg, 4-6 day old chick embryos) was “rapidly inhibited angiogenesis and produced within one hour a large avascular zone”, the “effect on cell division / embryonic development” value (Zebra fish embryos; 0.6 mM in embryonic medium, 28.5° C.) was “cell division block at the 8-16 cell stage of embryonic development followed by total cell fusion and developmental arrest” and the “effect on cell division / embryonic development” value (Zebra fish embryos; concentrations lower than 0.6 mM, within 120 minutes of incubation) was “cell proliferation continued but was abnormal”. The “anti-proliferative effect after microinjection” value (two-cell stage ZF eggs; 1 pmol/embryo microinjected) was “formation of a blastocoel-like cavity in the blastoderm of late blastulae and early gastrulae and disrupted further gastrulation”, the “anti-proliferative effect after microinjection” value (two-cell stage ZF eggs; 40 pmols/cell microinjected) was “slowed down cell division and resulted in deterioration of the cell localization pattern and developmental block” and the IC50 [2] was 25.1 µM. For the same compound, the IC50 [3] was 9.6 µM, the IC50 [4] was 35.7 µM and the mitotic spindle organization [5] was “aberrant monopolar mitotic structures”.
